{"source": "patent US5348946A", "about": "“Heteroanthracycline antitumor analogs” (Biochem Immunosystems, Inc., priority 1991, dated 1994)", "type_in_all_cases": "cell-based", "key": {"A-549/ATCC": {"test_system": "A-549/ATCC", "assay": "in vitro cytotoxicity evaluation, Non-Small Cell Lung Cancer", "details": "Homo sapiens, A549, 48 h, two days, sulforhodamine B", "experimental": "(§1) These assays were carried out at the Developmental Therapeutics Program, Division of Cancer Treatment, National Cancer Institute (Bethesda, Md., USA). The method consists of incubating varying concentrations of the drug with an inoculum of cells for two days.\n(§2) It should be noted that the first two parameters (GI50 and TGI) relate to antiproliferation effects while the third one (LC50) indicates true cytotoxicity."}, "FKVX": {"test_system": "FKVX", "assay": "in vitro cytotoxicity evaluation, Non-Small Cell Lung Cancer", "details": "Homo sapiens, 48 h, two days, sulforhodamine B", "experimental": "as §1, §2"}, "HOP-18": {"test_system": "HOP-18", "assay": "in vitro cytotoxicity evaluation, Non-Small Cell Lung Cancer", "details": "Homo sapiens, 48 h, HOP-18, two days, sulforhodamine B", "experimental": "as §1, §2"}, "LXFL-529L": {"test_system": "LXFL-529L", "assay": "in vitro cytotoxicity evaluation, Non-Small Cell Lung Cancer", "details": "Homo sapiens, 48 h, two days, sulforhodamine B", "experimental": "as §1, §2"}, "NCI-H226": {"test_system": "NCI-H226", "assay": "in vitro cytotoxicity evaluation, Non-Small Cell Lung Cancer", "details": "Homo sapiens, 48 h, NCI-H226, two days, sulforhodamine B", "experimental": "as §1, §2"}, "NCI-H23": {"test_system": "NCI-H23", "assay": "in vitro cytotoxicity evaluation, Non-Small Cell Lung Cancer", "details": "Homo sapiens, 48 h, NCI-H23, two days, sulforhodamine B", "experimental": "as §1, §2"}, "NCI-H460": {"test_system": "NCI-H460", "assay": "in vitro cytotoxicity evaluation, Non-Small Cell Lung Cancer", "details": "Homo sapiens, 48 h, NCI-H460, two days, sulforhodamine B", "experimental": "as §1, §2"}, "NCI-H522": {"test_system": "NCI-H522", "assay": "in vitro cytotoxicity evaluation, Non-Small Cell Lung Cancer", "details": "Homo sapiens, 48 h, NCI-H522, two days, sulforhodamine B", "experimental": "as §1, §2"}, "NCI=H322M": {"test_system": "NCI=H322M", "assay": "in vitro cytotoxicity evaluation, Non-Small Cell Lung Cancer", "details": "Homo sapiens, 48 h, two days, sulforhodamine B", "experimental": "as §1, §2"}, "DMS 114": {"test_system": "DMS 114", "assay": "in vitro cytotoxicity evaluation, Small Cell Lung Cancer", "details": "Homo sapiens, 48 h, DMS 114, two days, sulforhodamine B", "experimental": "BCH-255 (compound 39) was subjected to an in vitro cytotoxicity evaluation against 59 tumor cell lines to assess its potential as an anticancer drug. These assays were carried out at the Developmental Therapeutics Program, Division of Cancer Treatment, National Cancer Institute (Bethesda, Md., USA). The method consists of incubating varying concentrations of the drug with an inoculum of cells for two days. At the end of the assay, the number of viable cells is estimated with a dye, sulforhodamine B. The protocol is described in M. R. Boyd, \"Status of the NCI Preclinical Antitumor Drug Discovery Screen\", Principles and Practices of Oncology, 3, pp. 1-12, 1989.\nThere are three parameters calculated: GI50, the log molar concentration of drug required to inhibit cell growth by 50%; TGI, the log molar concentration of drug required to completely block cell growth; LC50, the log molar concentration of drug required to reduce the original cell number by 50%. It should be noted that the first two parameters (GI50 and TGI) relate to antiproliferation effects while the third one (LC50) indicates true cytotoxicity."}, "DMS 273": {"test_system": "DMS 273", "assay": "in vitro cytotoxicity evaluation, Small Cell Lung Cancer", "details": "Homo sapiens, 48 h, DMS 273, two days, sulforhodamine B", "experimental": "as §1, §2"}, "MALME-3M": {"test_system": "MALME-3M", "assay": "in vitro cytotoxicity evaluation, Melanoma", "details": "Homo sapiens, 48 h, two days, sulforhodamine B", "experimental": "as §1, §2"}, "SK-MEL-28": {"test_system": "SK-MEL-28", "assay": "in vitro cytotoxicity evaluation, Melanoma", "details": "Homo sapiens, 48 h, SK-MEL-28, two days, sulforhodamine B", "experimental": "as §1, §2"}, "IGROV-1": {"test_system": "IGROV-1", "assay": "in vitro cytotoxicity evaluation, Ovarian Cancer", "details": "Homo sapiens, 48 h, IGROV-1, two days, sulforhodamine B", "experimental": "as §1, §2"}, "OVCAR-3": {"test_system": "OVCAR-3", "assay": "in vitro cytotoxicity evaluation, Ovarian Cancer", "details": "Homo sapiens, 48 h, OVCAR-3, two days, sulforhodamine B", "experimental": "as §1, §2"}, "OVCAR-4": {"test_system": "OVCAR-4", "assay": "in vitro cytotoxicity evaluation, Ovarian Cancer", "details": "Homo sapiens, 48 h, OVCAR-4, two days, sulforhodamine B", "experimental": "as §1, §2"}, "OVCAR-5": {"test_system": "OVCAR-5", "assay": "in vitro cytotoxicity evaluation, Ovarian Cancer", "details": "Homo sapiens, 48 h, OVCAR-5, two days, sulforhodamine B", "experimental": "as §1, §2"}, "OVCAR-8": {"test_system": "OVCAR-8", "assay": "in vitro cytotoxicity evaluation, Ovarian Cancer", "details": "Homo sapiens, 48 h, OVCAR-8, two days, sulforhodamine B", "experimental": "as §1, §2"}, "SK-OV-3": {"test_system": "SK-OV-3", "assay": "in vitro cytotoxicity evaluation, Ovarian Cancer", "details": "Homo sapiens, 48 h, SK-OV-3, two days, sulforhodamine B", "experimental": "as §1, §2"}, "[1]": {"details": "read-out: LOG10 G150 (GI50) (converted)"}, "[2]": {"details": "read-out: Log10 LC50 (converted)"}, "[3]": {"details": "read-out: Log10 TGI (converted)"}}}
{"smiles": "COc1c2c(c(OC)c3c(=O)c4ccccc4sc13)CS(=O)(=O)[C@@H]2O[C@H]1C[C@H](N)[C@H](O)[C@H](C)O1", "note": "[BCH-255, (1S ) 1-daunosamine-4-11-dimethoxy-5-oxo-5-H-1,3-dihydrothioxantheno [2,3-c] thiophene-2,2-dioxide]", "values": [{"measurement": "GI50", "setting": "A-549/ATCC; [1]", "value": 19.5, "unit": "µM"}, {"measurement": "CC50", "setting": "A-549/ATCC; [2]", "value": 69.2, "unit": "µM"}, {"measurement": "IC (total growth inhibition (TGI))", "setting": "A-549/ATCC; [3]", "value": 36.3, "unit": "µM"}, {"measurement": "GI50", "setting": "FKVX; [1]", "value": 25.7, "unit": "µM"}, {"measurement": "CC50", "setting": "FKVX; [2]", "value": 93.3, "unit": "µM"}, {"measurement": "IC (total growth inhibition (TGI))", "setting": "FKVX; [3]", "value": 49, "unit": "µM"}, {"measurement": "GI50", "setting": "HOP-18; read-out: LOG10 G150 (GI50)", "value": "> 100", "unit": "µM"}, {"measurement": "CC50", "setting": "HOP-18; [2]", "value": "> 100", "unit": "µM"}, {"measurement": "IC (total growth inhibition (TGI))", "setting": "HOP-18; read-out: Log10 TGI", "value": "> 100", "unit": "µM"}, {"measurement": "GI50", "setting": "LXFL-529L; [1]", "value": 17, "unit": "µM"}, {"measurement": "CC50", "setting": "LXFL-529L; [2]", "value": 57.5, "unit": "µM"}, {"measurement": "IC (total growth inhibition (TGI))", "setting": "LXFL-529L; [3]", "value": 31.6, "unit": "µM"}, {"measurement": "GI50", "setting": "NCI-H226; [1]", "value": 20, "unit": "µM"}, {"measurement": "CC50", "setting": "NCI-H226; [2]", "value": 83.2, "unit": "µM"}, {"measurement": "IC (total growth inhibition (TGI))", "setting": "NCI-H226; [3]", "value": 40.7, "unit": "µM"}, {"measurement": "GI50", "setting": "NCI-H23; [1]", "value": 50.1, "unit": "µM"}, {"measurement": "CC50", "setting": "NCI-H23; [2]", "value": "> 100", "unit": "µM"}, {"measurement": "IC (total growth inhibition (TGI))", "setting": "NCI-H23; read-out: Log10 TGI", "value": "> 100", "unit": "µM"}, {"measurement": "GI50", "setting": "NCI-H460; [1]", "value": 20.4, "unit": "µM"}, {"measurement": "LC50 (concentration killing 50% of cells)", "setting": "NCI-H460; [2]", "value": 79.4, "unit": "µM"}, {"measurement": "IC (total growth inhibition (TGI))", "setting": "NCI-H460; [3]", "value": 39.8, "unit": "µM"}, {"measurement": "GI50", "setting": "NCI-H522; [1]", "value": 18.6, "unit": "µM"}, {"measurement": "CC50", "setting": "NCI-H522; [2]", "value": 77.6, "unit": "µM"}, {"measurement": "IC (total growth inhibition (TGI))", "setting": "NCI-H522; [3]", "value": 38, "unit": "µM"}, {"measurement": "GI50", "setting": "NCI=H322M; [1]", "value": 19.1, "unit": "µM"}, {"measurement": "CC50", "setting": "NCI=H322M; [2]", "value": 100, "unit": "µM"}, {"measurement": "IC (total growth inhibition (TGI))", "setting": "NCI=H322M; read-out: Log10 TGI", "value": 43.7, "unit": "µM"}, {"measurement": "GI50", "setting": "DMS 114; [1]", "value": 17.8, "unit": "µM"}, {"measurement": "IC (total growth inhibition (TGI))", "setting": "DMS 114; [3]", "value": 37.2, "unit": "µM"}, {"measurement": "GI50", "setting": "DMS 273; [1]", "value": 18.2, "unit": "µM"}, {"measurement": "CC50", "setting": "DMS 273; [2]", "value": 70.8, "unit": "µM"}, {"measurement": "IC (total growth inhibition (TGI))", "setting": "DMS 273; [3]", "value": 35.5, "unit": "µM"}, {"measurement": "GI50", "setting": "MALME-3M; [1]", "value": 20, "unit": "µM"}, {"measurement": "CC50", "setting": "MALME-3M; [2]", "value": 67.6, "unit": "µM"}, {"measurement": "IC (total growth inhibition (TGI))", "setting": "MALME-3M; [3]", "value": 36.3, "unit": "µM"}, {"measurement": "GI50", "setting": "SK-MEL-28; [1]", "value": 18.2, "unit": "µM"}, {"measurement": "CC50", "setting": "SK-MEL-28; [2]", "value": 67.6, "unit": "µM"}, {"measurement": "IC (total growth inhibition (TGI))", "setting": "SK-MEL-28; [3]", "value": 34.7, "unit": "µM"}, {"measurement": "GI50", "setting": "IGROV-1; [1]", "value": 16.6, "unit": "µM"}, {"measurement": "CC50", "setting": "IGROV-1; [2]", "value": 87.1, "unit": "µM"}, {"measurement": "IC (total growth inhibition (TGI))", "setting": "IGROV-1; [3]", "value": 38, "unit": "µM"}, {"measurement": "GI50", "setting": "OVCAR-3; [1]", "value": 15.5, "unit": "µM"}, {"measurement": "CC50", "setting": "OVCAR-3; [2]", "value": 64.6, "unit": "µM"}, {"measurement": "IC (total growth inhibition (TGI))", "setting": "OVCAR-3; [3]", "value": 31.6, "unit": "µM"}, {"measurement": "GI50", "setting": "OVCAR-4; [1]", "value": 18.2, "unit": "µM"}, {"measurement": "CC50", "setting": "OVCAR-4; [2]", "value": 64.6, "unit": "µM"}, {"measurement": "IC (total growth inhibition (TGI))", "setting": "OVCAR-4; [3]", "value": 34.7, "unit": "µM"}, {"measurement": "GI50", "setting": "OVCAR-5; [1]", "value": 39.8, "unit": "µM"}, {"measurement": "CC50", "setting": "OVCAR-5; [2]", "value": "> 100", "unit": "µM"}, {"measurement": "IC (total growth inhibition (TGI))", "setting": "OVCAR-5; read-out: Log10 TGI", "value": "> 100", "unit": "µM"}, {"measurement": "GI50", "setting": "OVCAR-8; [1]", "value": 19.5, "unit": "µM"}, {"measurement": "CC50", "setting": "OVCAR-8; [2]", "value": 74.1, "unit": "µM"}, {"measurement": "IC (total growth inhibition (TGI))", "setting": "OVCAR-8; [3]", "value": 38, "unit": "µM"}, {"measurement": "GI50", "setting": "SK-OV-3; [1]", "value": 19.1, "unit": "µM"}, {"measurement": "CC50", "setting": "SK-OV-3; [2]", "value": 85.1, "unit": "µM"}, {"measurement": "IC (total growth inhibition (TGI))", "setting": "SK-OV-3; [3]", "value": 40.7, "unit": "µM"}]}
